Measured values as given in US4753932A, “Novel 10-substituted steroids” (Roussel Uclaf, priority 1985, dated 1988).
Like-named read-outs stand apart in the source and are kept apart here.

Columns and labels:
[1] = tested on: Thymocytes of suprarenalectomized rats; experiment: Anti-glucocorticoid activity: inhibition of the effect of dexamethasone on incorporation of tritiated uridine in thymocytes; format: cell-based; conditions: for inhibition at 1 µM / inhibition at 0.1 µM / inhibition at 0.01 µM: Thymocyte, read-out: % inhibition of the effect of Dexamethasone
Method: (II). Anti-glucocorticoid activity
The technique utilized envolved from the method described by Dausse et al in "Molecular Pharmacology", Vol. 13, p. 948-955 (1977) ("the relationship between glucocorticoid structure and effects upon Thymocytes") for the thymocytes of mice. Thymocytes of suprarenalectomized rats were incubated at 37° C. for 3 hours in a nutritive medium containing 5.10^-8 M of dexamethasone in the presence or not of a product under study at different concentrations. Tritiated uridine was added and the incubation was continued for one hour. The incubates were cooled, then treated with a 5% solution of trichloroacetic acid, filtered on Whatman paper GF/A, and washed three times with a 5% solutioh of trichloroacetic acid. The radio-activity retained by the filter was determined.

[2] = molecular target: T1, Progestogen receptor of rabbit uterus (Oryctolagus cuniculus, UniProt P06186); experiment: Progestogen receptor of rabbit uterus: relative liaison affinity (RLA), displacement of tritiated Product R; format: binding; conditions: for relative liaison affinity (RLA), Progestogen receptor: vs tritiated Product R; for activity for the progestogen receptor (in words): conclusion
T1 construct: Their uterus were removed, weighed and homogenized at 0° C; from tissue; host or cells: 105,000 g supernatant (cytosol) of uterus from estradiol-treated impuberal rabbits
T1 sequence (P06186 1-930): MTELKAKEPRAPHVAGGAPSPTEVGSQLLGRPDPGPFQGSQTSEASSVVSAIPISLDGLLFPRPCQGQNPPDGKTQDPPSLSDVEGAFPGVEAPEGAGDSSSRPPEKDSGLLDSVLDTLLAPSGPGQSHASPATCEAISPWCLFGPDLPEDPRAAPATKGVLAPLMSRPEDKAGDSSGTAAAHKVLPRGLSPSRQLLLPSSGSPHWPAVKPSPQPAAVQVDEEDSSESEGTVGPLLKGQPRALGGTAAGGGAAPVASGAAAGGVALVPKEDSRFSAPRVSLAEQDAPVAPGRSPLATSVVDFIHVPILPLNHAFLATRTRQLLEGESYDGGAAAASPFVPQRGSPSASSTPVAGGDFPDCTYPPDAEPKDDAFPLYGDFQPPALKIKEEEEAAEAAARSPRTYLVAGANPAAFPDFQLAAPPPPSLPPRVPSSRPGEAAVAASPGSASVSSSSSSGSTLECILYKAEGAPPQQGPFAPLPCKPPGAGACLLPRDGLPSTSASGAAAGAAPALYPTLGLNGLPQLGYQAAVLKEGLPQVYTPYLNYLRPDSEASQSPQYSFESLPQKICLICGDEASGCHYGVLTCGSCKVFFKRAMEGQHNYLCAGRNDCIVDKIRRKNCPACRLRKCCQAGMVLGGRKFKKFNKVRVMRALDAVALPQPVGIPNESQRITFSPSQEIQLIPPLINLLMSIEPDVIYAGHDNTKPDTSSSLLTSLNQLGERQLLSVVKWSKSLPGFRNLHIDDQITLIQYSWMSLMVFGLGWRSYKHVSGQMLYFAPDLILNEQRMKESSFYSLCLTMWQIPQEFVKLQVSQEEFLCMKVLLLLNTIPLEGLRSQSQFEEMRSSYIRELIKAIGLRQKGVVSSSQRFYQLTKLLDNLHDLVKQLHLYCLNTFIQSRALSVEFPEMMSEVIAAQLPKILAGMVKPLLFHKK
Method: (1) Study of the activity on the hormone receptors
Progestogen receptor of rabbit uterus
Impuberal rabbits of about 1 kg received a cutaneous application of […] of estradiol and 5 days after this treatment, the animals were killed. Their uterus were removed, weighed and homogenized at 0° C. using a Potter teflon-glass in a TS buffered solution (Tris 10 mM, saccharose 0.25M, HCl pH 7.4) (1 g of tissue for 50 ml of TS). The homogenate was then ultracentrifuged at 105,000 g for 90 minutes at 0° C. Aliquots of the supernatant so obtained were incubated at 0° C. for a time t, with a constant concentration (T) of Product R tritiated (17,21-dimethyl-19-nor-Δ^4,9 -pregnadiene-3,20-dione) in the presence of increasing concentrations (0-2,500 10^-9 M) either of R cold, or of cold progesterone, or of the cold product under test. The concentration of tritiated R bonded (B) was then measured in each incubate by the technique of adsorption to dextran-carbon.
(§1) Calculation of the relative liaison affinity
(§2) The calculation of the relative liaison affinity (RLA) was identical for all the receptors. The two following curves were traced: the percentage of tritiated hormone bonded B as a function of the logarithm of the concentration of the cold reference hormone, and B/T as a function of the logarithm of the concentration of the cold product under test. The straight line was determined of the equation [formula] (B/T) max=percentage of tritiated hormone bonded for an incubation of this tritiated hormone at the concentration (T).
(§3) (B/T) min.=percentage of tritiated hormone bonded for an incubation of the tritiated hormone at the concentration (T) in the presence of a great excess of cold hormone (2500.10^-9 M).
(§4) The intersections of the straight line I50 and of the curves enabled the concentrations of the cold reference hormone (CH) and the cold product under test (CX) to be evaluated which inhibit by 50% the bonding of the tritiated hormone on the receptor.
The relative liaison affinity (RLA) of the product under test was determined by the equation [formula] and the following results were obtained: […]

[3] = molecular target: T2, Glucocorticoid receptor of rat thymus (Rattus norvegicus, UniProt P06536); experiment: Glucocorticoid receptor of rat thymus: relative liaison affinity (RLA), displacement of tritiated dexamethasone; format: binding, Male Sprague-Dawley EOPS rats; conditions: for relative liaison affinity (RLA), Glucocorticoid receptor: vs tritiated dexamethasone; for affinity for the glucocorticoid receptors (in words): conclusion
T2 construct: Their thymus was removed and homogenized at 0° C; from tissue; host or cells: 105,000 g supernatant (cytosol) of thymus from adrenalectomized male Sprague-Dawley rats
T2 sequence (P06536 1-795): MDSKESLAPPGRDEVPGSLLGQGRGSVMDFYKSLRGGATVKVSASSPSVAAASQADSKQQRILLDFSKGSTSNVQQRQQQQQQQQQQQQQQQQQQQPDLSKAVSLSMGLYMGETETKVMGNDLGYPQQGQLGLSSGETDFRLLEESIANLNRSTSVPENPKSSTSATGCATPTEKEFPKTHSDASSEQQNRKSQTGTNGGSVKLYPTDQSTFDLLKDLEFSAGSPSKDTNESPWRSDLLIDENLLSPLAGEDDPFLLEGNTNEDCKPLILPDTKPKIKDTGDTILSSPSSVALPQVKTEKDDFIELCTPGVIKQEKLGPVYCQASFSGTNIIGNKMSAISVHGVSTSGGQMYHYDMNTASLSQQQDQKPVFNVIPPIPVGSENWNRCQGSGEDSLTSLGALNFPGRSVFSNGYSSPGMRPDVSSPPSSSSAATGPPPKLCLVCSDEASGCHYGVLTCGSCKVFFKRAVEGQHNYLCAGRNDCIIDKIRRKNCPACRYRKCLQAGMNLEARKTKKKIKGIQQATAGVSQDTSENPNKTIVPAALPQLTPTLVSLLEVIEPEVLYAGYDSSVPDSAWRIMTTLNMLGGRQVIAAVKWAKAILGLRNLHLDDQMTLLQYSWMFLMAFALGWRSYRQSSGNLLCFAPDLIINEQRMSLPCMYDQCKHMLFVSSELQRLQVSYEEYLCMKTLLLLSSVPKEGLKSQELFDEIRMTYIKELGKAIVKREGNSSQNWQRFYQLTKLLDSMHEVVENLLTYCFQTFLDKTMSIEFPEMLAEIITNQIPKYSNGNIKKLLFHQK
Method: Glucocorticoid receptor of rat thymus:
Their thymus was removed and homogenized at 0° C. in a buffer Tris 10 mM saccharose 0.25M, dithiotreitol 2 mM, HCl pH 7.4, using a Potter polytetrafluoroethylene-glass (1 g of tissue for 10 ml of TS). The homogenate was then ultracentrifuged at 105,000 g for 90 minutes at 0° C. Aliquots of the supernatant so obtained were incubated at 0° C. for a time (t) with a constant concentration (T) of tritiated dexamethasone in the presence of increasing concentrations (0-2,500.10^-9 M) either of cold dexamethasone, or of the cold product under test. The concentration of tritiated dexamethasone bonded (B) was then measured in each incubate by the technique of adsorption to dextran-carbon.
as §1, §2, §3, §4

[4] = 5.10^-8 M dexamethasone, rat thymocytes
[5] = product at 10^-6 M, 5.10^-8 M dexamethasone, rat thymocytes, 37° C., 3 hours
[6] = product at 10^-7 M, 5.10^-8 M dexamethasone, rat thymocytes, 37° C., 3 hours
[7] = product at 10^-8 M, 5.10^-8 M dexamethasone, rat thymocytes, 37° C., 3 hours

Structure (SMILES) | effect on dexamethasone-induced diminution in the incorporation of tritiated uridine (in words) [1, 4] | inhibition at 1 µM [1, 5] | inhibition at 0.1 µM [1, 6] | inhibition at 0.01 µM [1, 7] | relative liaison affinity (RLA), Progestogen receptor ([2]; Incubation time 2 H at 0° C.) | relative liaison affinity (RLA), Progestogen receptor ([2]; Incubation time 24 H at 0° C.) | activity for the progestogen receptor (in words) [2] | relative liaison affinity (RLA), Glucocorticoid receptor ([3]; Incubation time 4 H at 0° C.) | relative liaison affinity (RLA), Glucocorticoid receptor ([3]; Incubation time 24 H at 0° C.) | affinity for the glucocorticoid receptors (in words) [3] | inhibition at 0.01 µM ([1]; Rattus norvegicus, 3 h) | inhibition at 0.1 µM ([1]; Rattus norvegicus, 3 h) | inhibition at 1 µM ([1]; Rattus norvegicus, 3 h) | incorporation of tritiated uridine (in words) ([1]; rat thymocytes, dexamethasone)
CC#C[C@]1(O)CC[C@H]2[C@@H]3CCC4=CC(=O)CC[C@]4(Cc4ccccc4)C3=CC[C@@]21C [Example 1, 10β-benzyl-17α-(prop-1-ynyl)-Δ^4,9(11) -estradien-17β-ol-3-one] | oppose this effect | 80% | 55% | 20% | 0.1 | 0.1 | negligible activity | 160 | 57 | very marked affinity |  |  |  | 
CC#C[C@]1(O)CC[C@H]2[C@@H]3CCC4=CC(=O)CC[C@]4(Cc4ccc(C)cc4)C3=CC[C@@]21C [Example 4, 10β-[4-methyl-benzyl]-17α-(prop-1-ynyl)-Δ^4,9(11) -estradiene-17β-ol-3-one] | oppose this effect |  |  |  |  |  | negligible activity |  |  |  | 10% | 30% | 83% | 
C=C(C)C[C@]12CCC(=O)C=C1CC[C@@H]1C2=CC[C@@]2(C)[C@H]1CC[C@@]2(O)C#CC [Example 7, 10β-(2-methyl-prop-2-en-1-yl)-17α-(prop-1-ynyl)-Δ^4,9(11) -estradien 17β-ol-3-one] | oppose this effect | 65% | 16% | 10% | 0.4 | 0.1 | negligible activity | 226 | 112 | very marked affinity |  |  |  | 
CC#C[C@]1(O)CC[C@H]2[C@@H]3CCC4=CC(=O)CC[C@]4(Sc4ccc(OC)cc4)C3=CC[C@@]21C [Example 10, 10β-[(4-methoxyphenyl)-thio]-17α-(prop-1-ynyl)-Δ^4,9(11) -estradien-17β-ol-3-one] | oppose this effect |  |  |  | 0.9 | 0.5 | negligible activity | 218 | 152 | very marked affinity |  |  |  | 
CC#C[C@]1(O)CC[C@H]2[C@@H]3CCC4=CC(=O)CC[C@]4(Cc4ccccc4F)C3=CC[C@@]21C [Example 12, 10β-[2-fluorobenzyl]-17α-(prop-1-ynyl)-Δ^4,9(11) -estradien-17β-ol-3-one] | oppose this effect | 67% | 12% | 6% | 0.1 | 0.1 | negligible activity | 136 | 45 | very marked affinity |  |  |  | 
C[C@@H]1C[C@H]2[C@@H]3CCC4=CC(=O)C=C[C@]4(C)[C@@]3(F)[C@@H](O)C[C@]2(C)[C@@]1(O)C(=O)CO [dexamethasone, reference compound] |  |  |  |  |  |  |  |  |  |  |  |  |  | diminution in the incorporation of tritiated uridine
